Assays:
[1] = target: T1, UP-1 mutant receptor (hPR) (Homo sapiens, UniProt P06401); test: Yeast transcription assay (β-galactosidase activity); assay type: cell-based; conditions: for activation of mutant receptor: different concentrations (FIG. 5A); for transcriptional activity (in words): 1 μM, 4 hours
T1 construct: the wild type receptor is truncated by 54 authentic amino acids and 12 novel amino acids are added at the C-terminus; expressed in transfected cells; host or cells: Saccharomyces cerevisiae BJ3505 transformed with the UP-1 plasmid
T1 sequence (P06401 with tags, fused parts or gaps): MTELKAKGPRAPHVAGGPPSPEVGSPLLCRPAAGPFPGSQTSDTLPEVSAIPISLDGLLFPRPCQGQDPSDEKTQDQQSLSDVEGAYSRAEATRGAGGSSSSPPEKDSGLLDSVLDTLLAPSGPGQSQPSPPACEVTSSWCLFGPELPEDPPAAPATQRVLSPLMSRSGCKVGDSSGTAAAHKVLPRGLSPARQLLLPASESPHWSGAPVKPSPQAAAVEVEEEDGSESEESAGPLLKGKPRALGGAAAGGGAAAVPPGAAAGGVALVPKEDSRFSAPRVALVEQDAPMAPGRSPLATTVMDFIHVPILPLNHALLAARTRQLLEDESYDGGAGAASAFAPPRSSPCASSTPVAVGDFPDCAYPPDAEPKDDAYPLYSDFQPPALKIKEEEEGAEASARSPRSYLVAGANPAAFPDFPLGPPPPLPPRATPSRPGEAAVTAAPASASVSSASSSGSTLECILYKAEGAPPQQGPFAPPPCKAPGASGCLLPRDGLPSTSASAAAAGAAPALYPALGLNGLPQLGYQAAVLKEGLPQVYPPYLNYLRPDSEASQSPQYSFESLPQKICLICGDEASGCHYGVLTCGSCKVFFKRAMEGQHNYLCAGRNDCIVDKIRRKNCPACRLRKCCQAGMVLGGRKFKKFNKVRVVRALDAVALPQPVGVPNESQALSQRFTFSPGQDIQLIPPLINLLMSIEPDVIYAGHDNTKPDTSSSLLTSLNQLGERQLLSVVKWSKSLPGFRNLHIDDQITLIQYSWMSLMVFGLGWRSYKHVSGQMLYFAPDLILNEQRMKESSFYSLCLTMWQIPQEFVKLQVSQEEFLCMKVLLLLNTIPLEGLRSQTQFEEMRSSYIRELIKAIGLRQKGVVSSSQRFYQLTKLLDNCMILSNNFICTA
Description: (§1) Saccharomyces cerevisiae cells containing YEphPRB and the reporter plasmid were grown overnight at 30° C. in minimal media containing 2% glucose. The cells were subcultured in fresh medium and allowed to grow until early mid-log phase (O.D.600nm=1.0). Induction of receptor was initiated by the addition of 100 μM copper sulfate to the culture. Cells were harvested by centrifugation at 1,500 ×g for 10 minutes and resuspended in the appropriate buffer. This and all subsequent steps of analysis of the yeast extracts were done at 4° C.
(§2) When the cell density reached O.D.600nm=1.0, hormones were added to the cultures.
(§3) The plate assays used to identify the receptor mutants are qualitative in nature. To further characterize the properties of UP-1, the activity of the receptor mutants was compared with that of the wild type receptor in a transcription assay. […] The β-galactosidase activity in the cell cytosol was then measured.

[2] = target: T2, wild type receptor (hPR-B) (Homo sapiens, UniProt P06401); test: as above; assay type: cell-based, yeast (Saccharomyces cerevisiae); conditions: 1 μM; for transcriptional activity (in words): 4 hours
T2 construct: expressed in transfected cells; host or cells: Saccharomyces cerevisiae BJ3505 transformed with YEphPR-B
T2 sequence (P06401 1-933): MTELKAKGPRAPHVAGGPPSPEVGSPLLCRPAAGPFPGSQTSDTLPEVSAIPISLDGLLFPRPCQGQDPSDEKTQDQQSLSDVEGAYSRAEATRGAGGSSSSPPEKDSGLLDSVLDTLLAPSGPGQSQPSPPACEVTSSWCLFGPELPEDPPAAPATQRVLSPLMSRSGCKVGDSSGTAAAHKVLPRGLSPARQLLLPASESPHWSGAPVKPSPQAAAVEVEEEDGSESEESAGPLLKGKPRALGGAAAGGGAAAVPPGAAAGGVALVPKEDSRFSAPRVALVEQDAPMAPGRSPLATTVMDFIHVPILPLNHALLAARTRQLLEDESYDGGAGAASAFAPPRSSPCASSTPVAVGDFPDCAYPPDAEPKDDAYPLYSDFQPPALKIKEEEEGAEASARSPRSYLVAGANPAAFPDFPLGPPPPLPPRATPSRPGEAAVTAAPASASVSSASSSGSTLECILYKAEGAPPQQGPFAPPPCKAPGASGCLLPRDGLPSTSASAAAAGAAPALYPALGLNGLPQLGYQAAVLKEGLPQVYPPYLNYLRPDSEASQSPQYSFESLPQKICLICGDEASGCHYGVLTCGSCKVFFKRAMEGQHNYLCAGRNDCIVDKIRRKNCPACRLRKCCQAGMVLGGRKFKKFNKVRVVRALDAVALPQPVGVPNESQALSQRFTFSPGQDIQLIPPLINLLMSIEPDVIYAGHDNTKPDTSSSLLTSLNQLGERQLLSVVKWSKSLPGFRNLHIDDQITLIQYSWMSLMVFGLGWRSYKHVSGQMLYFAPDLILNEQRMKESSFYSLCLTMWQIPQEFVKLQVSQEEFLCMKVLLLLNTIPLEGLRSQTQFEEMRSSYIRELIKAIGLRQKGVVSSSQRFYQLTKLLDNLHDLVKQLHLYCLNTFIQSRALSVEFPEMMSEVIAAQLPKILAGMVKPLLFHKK
Description: as §1, §2, §3

[3] = target: T3, YEphPR-B879 truncated receptor (Homo sapiens, UniProt P06401); test: Yeast transcription assay; assay type: cell-based
T3 construct: YEphPR-B879, containing a stop codon corresponding to amino acid 880; expressed in transfected cells; host or cells: Saccharomyces cerevisiae (yeast)
T3 sequence (P06401 1-879): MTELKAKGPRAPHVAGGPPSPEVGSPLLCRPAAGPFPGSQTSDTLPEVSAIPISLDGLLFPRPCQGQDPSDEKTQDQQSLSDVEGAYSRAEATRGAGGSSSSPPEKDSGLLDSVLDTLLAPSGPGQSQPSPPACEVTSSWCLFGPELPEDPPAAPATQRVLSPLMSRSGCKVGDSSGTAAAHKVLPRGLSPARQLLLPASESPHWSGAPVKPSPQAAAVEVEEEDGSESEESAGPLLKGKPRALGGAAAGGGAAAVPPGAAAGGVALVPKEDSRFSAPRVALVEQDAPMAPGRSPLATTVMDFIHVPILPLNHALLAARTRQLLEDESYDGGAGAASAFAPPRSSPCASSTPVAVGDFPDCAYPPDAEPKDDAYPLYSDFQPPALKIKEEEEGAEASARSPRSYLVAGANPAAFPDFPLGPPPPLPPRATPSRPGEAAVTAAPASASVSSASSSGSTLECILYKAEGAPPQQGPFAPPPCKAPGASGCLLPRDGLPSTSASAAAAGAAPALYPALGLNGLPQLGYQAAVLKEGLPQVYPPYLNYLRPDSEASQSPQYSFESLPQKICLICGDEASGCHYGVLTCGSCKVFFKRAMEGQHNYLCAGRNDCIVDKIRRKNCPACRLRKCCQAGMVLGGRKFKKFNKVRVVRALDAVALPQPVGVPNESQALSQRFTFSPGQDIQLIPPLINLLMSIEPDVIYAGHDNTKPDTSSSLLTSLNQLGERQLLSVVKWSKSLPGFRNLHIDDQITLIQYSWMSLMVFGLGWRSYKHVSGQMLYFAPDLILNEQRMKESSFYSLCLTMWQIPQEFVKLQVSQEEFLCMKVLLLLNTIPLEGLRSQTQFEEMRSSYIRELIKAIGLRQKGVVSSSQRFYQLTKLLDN
Description: as §2
(§4) CJ236 cells were infected with mpPR90 (an M13 plasmid containing hPR cDNA).
(§5) Yeast cells were grown in the presence of 100 μM CuSO4. Transcriptional analysis was done as described above. Experiments were done in triplicate and transcriptional activities were normalized with respect to protein.

[4] = target: T4, YEphPRB891 truncated receptor (Homo sapiens, UniProt P06401); test: Yeast transcription assay; assay type: cell-based
T4 construct: YEphPRB891, containing a stop codon at amino acid 892; expressed in transfected cells; host or cells: Saccharomyces cerevisiae (yeast)
T4 sequence (P06401 1-891): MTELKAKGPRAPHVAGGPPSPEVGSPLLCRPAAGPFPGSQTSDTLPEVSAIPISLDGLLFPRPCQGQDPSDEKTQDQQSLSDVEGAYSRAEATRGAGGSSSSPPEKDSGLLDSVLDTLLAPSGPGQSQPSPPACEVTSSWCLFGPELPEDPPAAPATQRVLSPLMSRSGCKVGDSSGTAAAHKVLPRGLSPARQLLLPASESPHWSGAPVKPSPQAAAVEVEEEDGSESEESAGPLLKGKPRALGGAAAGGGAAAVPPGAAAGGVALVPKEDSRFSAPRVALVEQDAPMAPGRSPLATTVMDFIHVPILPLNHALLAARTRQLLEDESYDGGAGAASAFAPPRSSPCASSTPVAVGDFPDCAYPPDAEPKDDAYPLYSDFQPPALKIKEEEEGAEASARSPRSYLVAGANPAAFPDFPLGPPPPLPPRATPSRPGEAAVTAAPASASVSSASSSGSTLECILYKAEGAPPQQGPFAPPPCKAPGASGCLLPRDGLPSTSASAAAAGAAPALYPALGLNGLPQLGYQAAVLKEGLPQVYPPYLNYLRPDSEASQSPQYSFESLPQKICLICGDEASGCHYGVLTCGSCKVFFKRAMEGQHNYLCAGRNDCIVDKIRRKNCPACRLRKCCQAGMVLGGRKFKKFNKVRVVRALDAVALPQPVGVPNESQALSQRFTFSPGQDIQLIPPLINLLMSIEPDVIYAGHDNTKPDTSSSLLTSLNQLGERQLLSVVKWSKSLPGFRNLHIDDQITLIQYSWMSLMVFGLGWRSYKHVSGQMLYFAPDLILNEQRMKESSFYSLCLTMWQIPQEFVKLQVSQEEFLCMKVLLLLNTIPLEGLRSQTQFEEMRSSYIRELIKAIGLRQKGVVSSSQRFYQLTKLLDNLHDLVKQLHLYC
Description: as §2, §4, §5

[5] = target: T5, wild type receptor (phPR-B) (Homo sapiens, UniProt P06401); test: Transient transfection CAT assay in CV-1 cells; assay type: cell-based, monkey
T5 sequence (P06401 1-933): T2 sequence (P06401 1-933)
Description: (§6) Five μg of chloramphenicol acetyltransferase (CAT) reporter plasmid, containing two copies of a PRE/GRE from the tyrosine amino transferase gene linked to the thymidine kinase promoter ([…]), were used in transient cotransfection experiments together with 5 μg of wild type or mutant receptor DNAs.
(§7) CAT assays were performed as described above. In panel (B), CV-1 cells were transiently transfected as in (A).
Cell-type specific factors can influence the activity of the transactivating domains of steroid receptors. In order to evaluate this possibility, wild type and mutant receptors were transfected into CV-1 cells.

wild type PR (phPR-B) = target: T6, wild type PR (phPR-B) (Homo sapiens, UniProt P06401); test: Transient transfection CAT assay ([…]) in HeLa cells; assay type: cell-based; conditions: 10^−7M, 48 hours
T6 sequence (P06401 1-933): T2 sequence (P06401 1-933)
Description: as §6, §7

891 mutant (phPR-B891) = target: T7, 891 mutant (phPR-B891) (Homo sapiens, UniProt P06401); test: as above; assay type: cell-based; conditions: 10^−7M
T7 construct: YEphPRB891, containing a stop codon at amino acid 892; expressed in transfected cells; host or cells: HeLa cells (A16)
T7 sequence (P06401 1-891): T4 sequence (P06401 1-891)
Description: as §6, §7

SMILES | transcriptional activity (in words) [1] | transcriptional activity (in words) [2] | also measured
CN(C)c1ccc(C2CC3(C)C(CCC34CCCO4)C3CCC4=CC(=O)CCC4=C23)cc1 (stereo not drawn) [Org31376, (11β,14β,17α)-4′,5′-dihydro-11-(4-dimethylaminophenyl)-[spiroestra-4,9-diene-17,2′(3′H)-furan]-3-one] |  |  | activation of mutant receptor [1]: activated
C[C@H]1CC2=CC(=O)CCC2=C2[C@@H]1[C@@H]1CC[C@@]3(CCCO3)[C@@]1(C)C[C@@H]2c1ccc(N(C)C)cc1 [Org31806, (7β,11β,17β)-11-(4-dimethylaminophenyl)-7-methyl-4′,5′-dihydrospiro[ester-4,9-diene-17,2′(3′H)-furan]-3-one] |  |  | activation of mutant receptor [1]: activated
CCC(=O)[C@@]1(C)CC[C@H]2[C@@H]3CCC4=CC(=O)CCC4=C3CC[C@@]21C [R5020] | had no effect |  | 
C[C@]12CCC(=O)C=C1CC[C@@H]1[C@@H]2[C@@H](O)C[C@@]2(C)[C@H]1CC[C@]2(O)C(=O)CO [cortisol] | inactive | inactive | 
C[C@@H]1C[C@H]2[C@@H]3CCC4=CC(=O)C=C[C@]4(C)[C@@]3(F)[C@@H](O)C[C@]2(C)[C@@]1(O)C(=O)CO [dexamethasone] | inactive | inactive | 
C[C@]12CC[C@@H]3c4ccc(O)cc4CC[C@H]3[C@@H]1CC[C@@H]2O [estradiol] | inactive | inactive | 
COc1ccc2c(c1)CCC(c1ccccc1)=C2c1ccc(OCCN2CCCC2)cc1 [nafoxidine] | inactive | inactive | 
CC(=O)[C@H]1CC[C@H]2[C@@H]3CCC4=CC(=O)CC[C@]4(C)[C@H]3CC[C@]12C [progesterone] |  |  | activation of transcription [3]: inactive; activation of transcription [4]: inactive; induction of transcription [2]: greater than 60 fold; receptor activation (CAT) [5]: activated; induction of transcription of CAT gene reporter (wild type PR (phPR-B)): 3- to 4 fold; induction of CAT activity (891 mutant (phPR-B891)): no activity
